Our source for the remaining binding values is article PMC7486443, “Generation of Phenothiazine with Potent Anti-TLK1 Activity for Prostate Cancer Therapy” (iScience, 2020).

Assay in all cases: biochemical
What all share (design): DiscoverX KINOMEscan scanMAX competition binding panel, single concentration, percent of control; remaining binding: dose or concentration left out as unconfirmed
Settings in all cases: KINOMEscan binding, percent of control; read-out: Table S4_SCANMAX REPORT - related to Fig. 1 / Percent Control

The target in experiment [1] is MKNK1 (Homo sapiens, UniProt Q9BUB5).
Experiment [2] deals with DYRK1A (Homo sapiens, UniProt Q13627).
Experiment [3] addresses LRRK2(G2019S) (Homo sapiens, UniProt Q5S007, G2019S).
The target in experiment [4] is PRKCE (Homo sapiens, UniProt Q02156).
Experiment [5] deals with SGK2 (Homo sapiens, UniProt Q9HBY8).
The target in experiment [6] is T1, MRCKA (Homo sapiens, UniProt Q5VT25).
T1 construct: gene CDC42BPA

The target in experiment [7] is MTOR (Homo sapiens, UniProt P42345).
In experiment [8] the target is AKT2 (Homo sapiens, UniProt P31751).
Experiment [9] addresses T2, MEK6 (Homo sapiens, UniProt P52564).
T2 construct: gene MAP2K6

Experiment [10] deals with T3, ABL1(T315I)-phosphorylated (Homo sapiens, UniProt P00519, T315I).
T3 construct: phosphorylated

In experiment [11] the target is PIM2 (Homo sapiens, UniProt Q9P1W9).
Experiment [12] has as its target KIT(A829P) (Homo sapiens, UniProt P10721, A829P).
The target of experiment [13] is ALK(L1196M) (Homo sapiens, UniProt Q9UM73, L1196M).
The target of experiment [14] is CSNK1G3 (Homo sapiens, UniProt Q9Y6M4).
Experiment [15] deals with MAPKAPK5 (Homo sapiens, UniProt Q8IW41).
Experiment [16] concerns the target PRKCH (Homo sapiens, UniProt P24723).
The target of experiment [17] is T4, SgK110 (Homo sapiens, UniProt P0C264).
T4 construct: gene SBK3

For experiment [18], the target named is T5, YES (Homo sapiens, UniProt P07947).
T5 construct: gene YES1

T4 sequence (P0C264 whole entry): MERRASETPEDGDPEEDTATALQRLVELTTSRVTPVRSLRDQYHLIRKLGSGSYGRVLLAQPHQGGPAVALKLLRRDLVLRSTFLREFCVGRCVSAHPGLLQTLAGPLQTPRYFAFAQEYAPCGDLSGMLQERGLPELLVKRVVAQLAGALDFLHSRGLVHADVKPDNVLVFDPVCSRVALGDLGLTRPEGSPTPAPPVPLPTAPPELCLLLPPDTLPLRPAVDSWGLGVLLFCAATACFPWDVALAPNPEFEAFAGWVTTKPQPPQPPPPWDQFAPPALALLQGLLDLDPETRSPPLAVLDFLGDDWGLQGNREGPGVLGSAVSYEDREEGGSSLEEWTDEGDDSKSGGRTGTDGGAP
T2 sequence (P52564 whole entry): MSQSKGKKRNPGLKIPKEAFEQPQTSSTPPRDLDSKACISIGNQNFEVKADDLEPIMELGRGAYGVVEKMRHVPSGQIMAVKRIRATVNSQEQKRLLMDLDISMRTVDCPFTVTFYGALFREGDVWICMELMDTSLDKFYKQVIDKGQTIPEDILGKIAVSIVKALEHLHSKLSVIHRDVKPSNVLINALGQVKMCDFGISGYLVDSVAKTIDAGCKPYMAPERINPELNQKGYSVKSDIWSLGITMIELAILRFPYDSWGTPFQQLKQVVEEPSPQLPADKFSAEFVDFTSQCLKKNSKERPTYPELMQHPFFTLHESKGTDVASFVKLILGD
Sequence of CSNK1G3 (Q9Y6M4 whole entry): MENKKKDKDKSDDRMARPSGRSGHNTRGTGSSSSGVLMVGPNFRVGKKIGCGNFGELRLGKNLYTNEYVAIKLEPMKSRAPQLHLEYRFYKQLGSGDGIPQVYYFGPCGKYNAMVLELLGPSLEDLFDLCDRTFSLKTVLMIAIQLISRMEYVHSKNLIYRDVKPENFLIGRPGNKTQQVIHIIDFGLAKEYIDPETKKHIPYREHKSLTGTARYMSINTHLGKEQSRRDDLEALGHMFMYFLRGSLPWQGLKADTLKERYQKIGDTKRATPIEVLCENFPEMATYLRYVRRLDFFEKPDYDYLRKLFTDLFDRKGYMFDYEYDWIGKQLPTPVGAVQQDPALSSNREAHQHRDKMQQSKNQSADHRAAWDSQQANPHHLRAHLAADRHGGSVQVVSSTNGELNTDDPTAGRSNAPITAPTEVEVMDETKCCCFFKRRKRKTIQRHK
T1 sequence (Q5VT25 whole entry): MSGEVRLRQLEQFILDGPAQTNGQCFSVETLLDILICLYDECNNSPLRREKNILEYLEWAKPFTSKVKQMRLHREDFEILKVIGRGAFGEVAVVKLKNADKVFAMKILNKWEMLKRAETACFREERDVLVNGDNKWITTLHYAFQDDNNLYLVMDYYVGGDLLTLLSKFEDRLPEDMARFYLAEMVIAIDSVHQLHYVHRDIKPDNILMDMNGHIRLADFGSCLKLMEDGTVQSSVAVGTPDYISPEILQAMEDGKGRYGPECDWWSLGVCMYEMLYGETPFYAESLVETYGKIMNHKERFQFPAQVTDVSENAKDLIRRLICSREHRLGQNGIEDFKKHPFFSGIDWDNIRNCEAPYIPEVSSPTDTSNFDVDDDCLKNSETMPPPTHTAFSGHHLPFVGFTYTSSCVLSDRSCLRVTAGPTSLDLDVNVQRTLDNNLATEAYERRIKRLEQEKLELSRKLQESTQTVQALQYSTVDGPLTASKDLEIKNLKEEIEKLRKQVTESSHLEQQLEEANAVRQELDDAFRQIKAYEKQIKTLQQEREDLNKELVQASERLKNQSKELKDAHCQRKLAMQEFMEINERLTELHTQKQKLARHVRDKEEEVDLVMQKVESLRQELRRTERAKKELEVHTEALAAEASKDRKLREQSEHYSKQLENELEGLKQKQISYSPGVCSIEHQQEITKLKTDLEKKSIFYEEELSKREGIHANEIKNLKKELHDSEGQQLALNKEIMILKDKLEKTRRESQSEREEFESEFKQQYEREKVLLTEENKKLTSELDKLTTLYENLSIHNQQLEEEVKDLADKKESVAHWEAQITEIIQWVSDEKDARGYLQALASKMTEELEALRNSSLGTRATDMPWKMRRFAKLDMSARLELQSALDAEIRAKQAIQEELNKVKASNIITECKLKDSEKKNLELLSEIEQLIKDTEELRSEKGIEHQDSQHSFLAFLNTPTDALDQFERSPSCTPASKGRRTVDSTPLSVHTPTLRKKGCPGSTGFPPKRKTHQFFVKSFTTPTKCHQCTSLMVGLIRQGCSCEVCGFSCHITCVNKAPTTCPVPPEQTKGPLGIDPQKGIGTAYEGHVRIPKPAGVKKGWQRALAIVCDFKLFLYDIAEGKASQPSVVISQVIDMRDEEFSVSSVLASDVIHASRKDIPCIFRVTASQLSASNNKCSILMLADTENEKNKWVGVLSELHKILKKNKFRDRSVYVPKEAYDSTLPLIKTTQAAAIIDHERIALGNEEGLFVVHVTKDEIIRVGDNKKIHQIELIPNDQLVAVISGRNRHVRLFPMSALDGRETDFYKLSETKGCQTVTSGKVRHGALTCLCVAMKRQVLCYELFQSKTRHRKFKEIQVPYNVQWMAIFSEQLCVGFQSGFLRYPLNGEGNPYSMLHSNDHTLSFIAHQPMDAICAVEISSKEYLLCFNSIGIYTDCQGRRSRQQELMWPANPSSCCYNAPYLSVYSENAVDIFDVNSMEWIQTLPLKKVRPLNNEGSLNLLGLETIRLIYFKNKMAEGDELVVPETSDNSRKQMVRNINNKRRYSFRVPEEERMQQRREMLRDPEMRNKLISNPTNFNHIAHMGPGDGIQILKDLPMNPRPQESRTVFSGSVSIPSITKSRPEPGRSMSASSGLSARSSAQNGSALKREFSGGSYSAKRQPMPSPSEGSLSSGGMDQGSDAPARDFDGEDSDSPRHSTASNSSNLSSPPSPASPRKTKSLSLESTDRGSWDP
Sequence of AKT2 (P31751 whole entry): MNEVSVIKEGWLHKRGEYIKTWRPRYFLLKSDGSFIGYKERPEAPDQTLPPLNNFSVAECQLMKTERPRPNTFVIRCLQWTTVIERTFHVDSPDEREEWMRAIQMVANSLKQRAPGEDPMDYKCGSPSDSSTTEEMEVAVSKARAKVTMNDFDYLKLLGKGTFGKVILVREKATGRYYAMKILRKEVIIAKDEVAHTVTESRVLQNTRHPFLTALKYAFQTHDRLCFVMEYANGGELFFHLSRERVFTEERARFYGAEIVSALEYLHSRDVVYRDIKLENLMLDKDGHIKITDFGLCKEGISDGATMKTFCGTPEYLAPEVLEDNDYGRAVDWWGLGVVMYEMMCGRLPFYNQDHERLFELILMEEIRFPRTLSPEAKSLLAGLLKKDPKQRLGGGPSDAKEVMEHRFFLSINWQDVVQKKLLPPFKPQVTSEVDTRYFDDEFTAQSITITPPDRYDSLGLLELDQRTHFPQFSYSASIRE
Sequence of ALK(L1196M) (Q9UM73 whole entry L1196M): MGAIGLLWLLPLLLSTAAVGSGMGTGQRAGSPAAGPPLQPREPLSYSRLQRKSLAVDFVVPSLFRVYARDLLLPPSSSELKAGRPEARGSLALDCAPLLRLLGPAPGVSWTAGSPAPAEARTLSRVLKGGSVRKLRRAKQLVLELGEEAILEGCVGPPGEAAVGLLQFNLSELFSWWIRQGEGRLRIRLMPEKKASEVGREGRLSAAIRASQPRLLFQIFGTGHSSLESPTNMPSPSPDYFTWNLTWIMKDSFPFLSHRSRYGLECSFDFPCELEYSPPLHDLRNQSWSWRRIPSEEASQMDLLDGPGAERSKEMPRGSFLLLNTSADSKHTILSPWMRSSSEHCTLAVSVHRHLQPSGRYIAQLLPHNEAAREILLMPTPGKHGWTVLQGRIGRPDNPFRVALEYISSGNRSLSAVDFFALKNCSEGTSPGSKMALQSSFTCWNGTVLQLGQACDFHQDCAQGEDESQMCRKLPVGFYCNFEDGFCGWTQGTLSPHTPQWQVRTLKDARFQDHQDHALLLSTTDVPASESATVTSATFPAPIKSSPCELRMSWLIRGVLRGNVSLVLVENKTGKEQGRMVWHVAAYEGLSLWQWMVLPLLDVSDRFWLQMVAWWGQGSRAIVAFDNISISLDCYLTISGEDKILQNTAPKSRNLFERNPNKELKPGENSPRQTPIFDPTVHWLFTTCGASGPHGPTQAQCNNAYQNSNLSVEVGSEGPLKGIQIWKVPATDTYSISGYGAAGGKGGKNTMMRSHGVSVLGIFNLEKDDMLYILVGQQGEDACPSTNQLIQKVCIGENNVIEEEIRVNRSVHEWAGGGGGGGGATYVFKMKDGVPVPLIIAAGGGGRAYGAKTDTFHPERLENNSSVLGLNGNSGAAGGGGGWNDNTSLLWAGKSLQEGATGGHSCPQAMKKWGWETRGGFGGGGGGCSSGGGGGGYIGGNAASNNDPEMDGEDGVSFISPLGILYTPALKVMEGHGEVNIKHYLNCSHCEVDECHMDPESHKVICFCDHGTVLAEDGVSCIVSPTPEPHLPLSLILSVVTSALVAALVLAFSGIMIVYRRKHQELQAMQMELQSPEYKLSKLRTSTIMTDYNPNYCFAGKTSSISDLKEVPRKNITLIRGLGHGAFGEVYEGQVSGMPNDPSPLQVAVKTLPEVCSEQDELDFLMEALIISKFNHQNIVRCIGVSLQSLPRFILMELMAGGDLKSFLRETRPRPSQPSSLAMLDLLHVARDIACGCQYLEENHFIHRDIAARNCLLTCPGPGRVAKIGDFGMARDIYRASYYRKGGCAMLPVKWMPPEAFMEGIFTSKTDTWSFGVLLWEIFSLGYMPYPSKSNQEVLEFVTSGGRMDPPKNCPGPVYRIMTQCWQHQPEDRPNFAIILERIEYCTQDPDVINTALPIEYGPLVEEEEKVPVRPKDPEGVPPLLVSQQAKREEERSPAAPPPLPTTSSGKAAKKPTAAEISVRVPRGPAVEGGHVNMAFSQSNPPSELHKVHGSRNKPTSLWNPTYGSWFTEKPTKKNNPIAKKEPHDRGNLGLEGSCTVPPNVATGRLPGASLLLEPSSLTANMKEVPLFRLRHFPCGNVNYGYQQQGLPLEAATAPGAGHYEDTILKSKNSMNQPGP

Turning to `c1ccc2c(c1)Sc1ccccc1N2CCN1CCOCC1` [J54], the remaining binding in [1] amounted to 92%; in experiment [2], 80%; in experiment [3], 38%; in experiment [4], 100%; in [5], 90%; in experiment [6] it was 99%. In addition, the remaining binding in experiment [8] was found to be 100%; in experiment [9] it was 96%; in experiment [10] it was 93%; in [11], 42%; in experiment [12], 94%; in experiment [13], 100%. In addition, the remaining binding was 100% in [14]; 100% in [15]; 94% in experiment [16]; 100% in [17]; 100% in experiment [18]. Besides, the remaining binding at 15 µM in experiment [7] was determined as 100%.
